From the supplement of paper PMC11923942

What was measured:
[1] = GC retention time (DB-5MS, GC-APCI); higher = later elution
Description: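 Standards of hydrophobic organic contaminants were analysed by GC-APCI (positive mode, dry or wet source conditions) coupled to cyclic ion mobility-QTOF MS. CCS was measured for the base ion (sometimes a fragment ion) in N2 drift gas (one-pass mode, calibrated with a Waters 22-compound mix). 5 mL/min).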

[2] = collision cross section (N2, base ion); higher = larger ion cross section
Description: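 Standards of hydrophobic organic contaminants were analysed by GC-APCI (positive mode, dry or wet source conditions) coupled to cyclic ion mobility-QTOF MS. CCS was measured for the base ion (sometimes a fragment ion) in N2 drift gas (one-pass mode, calibrated with a Waters 22-compound mix).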

CCCCCCCCCCCCCCC=CC(F)(F)C(F)(F)C(F)(F)C(F)(F)C(F)(F)C(F)(F)C(F)(F)C(F)(F)C(F)(F)C(F)(F)C(F)(F)C(F)(F)F [1-(Perfluorododecyl)-hexadec-1-ene] (APCI source condition: Dry, base ion: [M-H]+)
GC retention time [1]: 18 min
collision cross section [2]: 255.25 Å²

C=CCOc1c(Br)cc(Br)cc1Br [1,3,5-Tribromo-2-prop-2-enoxybenzene] (APCI source condition: Dry, base ion: [M-Br]+)
GC retention time [1]: 15.2 min
collision cross section [2]: 136.27 Å²

CCCCCCOP(=O)(OCCCCCC)OCCCCCC [Trihexyl phosphate] (APCI source condition: Wet, base ion: [M+H]+)
GC retention time [1]: 19.4 min
collision cross section [2]: 201 Å²

Clc1ccc(Cl)c(-c2c(Cl)c(Cl)c(Cl)c(Cl)c2Cl)c1Cl [PCB 200] (APCI source condition: Dry, base ion: M+.)
GC retention time [1]: 22.2 min
collision cross section [2]: 167.33 Å²

Clc1cc(Cl)c(-c2ccc(Cl)c(Cl)c2Cl)cc1Cl [PCB 138] (APCI source condition: Dry, base ion: M+.)
GC retention time [1]: 20.8 min
collision cross section [2]: 159.68 Å²

ClC1=C(Cl)C2(Cl)[C@H]3[C@@H]4O[C@@H]4[C@H](Cl)[C@H]3C1(Cl)C2(Cl)Cl (stereo partly drawn) [Heptachlor-exo-epoxide] (APCI source condition: Dry, base ion: [M-H]+)
GC retention time [1]: 18.2 min
collision cross section [2]: 151.86 Å²

Brc1cc(Br)c(Oc2c(Br)cc(Br)c(Br)c2Br)c(Br)c1 [PBDE 184] (APCI source condition: Dry, base ion: M+.)
GC retention time [1]: 27.8 min
collision cross section [2]: 181.4 Å²

ClC1=C(Cl)[C@]2(Cl)[C@H]3[C@H]([C@H]4C=C[C@@H]3C4)[C@@]1(Cl)C2(Cl)Cl [Isodrin] (APCI source condition: Dry, base ion: M+.)
GC retention time [1]: 18 min
collision cross section [2]: 150.98 Å²

CCCCC(CC)COP(=O)(Oc1ccccc1)Oc1ccccc1 (stereo not drawn) [2-Ethylhexyl diphenyl phosphate] (APCI source condition: Wet, base ion: [M-C8H15]+)
GC retention time [1]: 21.3 min
collision cross section [2]: 149.25 Å²

Brc1cccc(Oc2ccc(Br)c(Br)c2)c1 [PBDE 35] (APCI source condition: Dry, base ion: M+.)
GC retention time [1]: 20.3 min
collision cross section [2]: 154.86 Å²

Clc1ccc(Cl)c(-c2cc(Cl)c(Cl)cc2Cl)c1 [PCB 101] (APCI source condition: Dry, base ion: M+.)
GC retention time [1]: 18.8 min
collision cross section [2]: 155.45 Å²

Brc1ccc(Oc2c(Br)cc(Br)cc2Br)c(Br)c1 [PBDE 100] (APCI source condition: Dry, base ion: M+.)
GC retention time [1]: 23.7 min
collision cross section [2]: 169.85 Å²

c1ccc2cc3c(ccc4ccccc43)cc2c1 [Benzo(a)anthracene] (APCI source condition: Dry, base ion: M+.)
GC retention time [1]: 21.8 min
collision cross section [2]: 140.47 Å²

Clc1ccc(Cl)c(Cl)c1Cl [1,2,3,4-Tetrachlorobenzene] (APCI source condition: Dry, base ion: M+.)
GC retention time [1]: 9.99 min
collision cross section [2]: 135.67 Å²

c1ccc2c(c1)c1cccc3ccc4cccc2c4c31 [Benzo(e)pyrene] (APCI source condition: Dry, base ion: M+.)
GC retention time [1]: 24.7 min
collision cross section [2]: 142.88 Å²

Clc1c(Cl)c(Cl)c(-c2c(Cl)c(Cl)c(Cl)c(Cl)c2Cl)c(Cl)c1Cl [PCB 209] (APCI source condition: Dry, base ion: M+.)
collision cross section [2]: 179.93 Å²

CC(CCl)OP(=O)(OC(C)CCl)OC(C)CCl (stereo not drawn) [Tris(1-chloro-2-propyl)phosphate] (APCI source condition: Wet, base ion: [M-C3H4Cl]+)
GC retention time [1]: 15.4 min
collision cross section [2]: 160.76 Å²

Clc1cc(Cl)c(-c2cc(Cl)c(Cl)c(Cl)c2Cl)cc1Cl [PCB 180] (APCI source condition: Dry, base ion: M+.)
GC retention time [1]: 22 min
collision cross section [2]: 166.55 Å²

Clc1ccc(-c2ccc(Cl)cc2Cl)cc1 [PCB 28] (APCI source condition: Dry, base ion: M+.)
GC retention time [1]: 16.4 min
collision cross section [2]: 142.54 Å²

Clc1cc(-c2ccccc2)c(Cl)c(Cl)c1Cl [PCB 61] (APCI source condition: Dry, base ion: M+.)
GC retention time [1]: 18.3 min
collision cross section [2]: 148.05 Å²

Clc1ccc(C(c2ccc(Cl)cc2)C(Cl)Cl)cc1 [4,4'-DDD] (APCI source condition: Dry, base ion: [M-CHCl2]+)
GC retention time [1]: 20.1 min
collision cross section [2]: 142.2 Å²

c1ccc2c(c1)cc1ccc3cccc4ccc2c1c34 [Benzo(a)pyrene] (APCI source condition: Dry, base ion: M+.)
GC retention time [1]: 24.8 min
collision cross section [2]: 143.28 Å²

Brc1cccc(Oc2c(Br)c(Br)c(Br)c(Br)c2Br)c1Br [PBDE 173] (APCI source condition: Dry, base ion: M+.)
GC retention time [1]: 30.2 min
collision cross section [2]: 185.08 Å²

ClC1CCCC(Br)(Br)C(Cl)(C2=CCCC2)C(Cl)(Cl)C1(Cl)Cl (stereo not drawn) [Hexachlorocyclopentenyl-dibromocyclooctane] (APCI source condition: Dry, base ion: [M-CH4Cl2Br]+)
GC retention time [1]: 24.4 min
collision cross section [2]: 152.06 Å²

Brc1cc(Br)c(Br)c(Br)c1Br [Pentabromobenzene] (APCI source condition: Dry, base ion: M+.)
GC retention time [1]: 18.5 min
collision cross section [2]: 135.24 Å²

CCCCCCCCCCCCCCCCC(F)(F)C(F)(F)C(F)(F)C(F)(F)C(F)(F)C(F)(F)C(F)(F)C(F)(F)C(F)(F)C(F)(F)F [1-(Henicosafluorodecyl)hexadecane] (APCI source condition: Dry, base ion: [M-H]+)
GC retention time [1]: 17.6 min
collision cross section [2]: 241.65 Å²

O=P(Oc1ccccc1)(Oc1ccccc1)Oc1ccccc1 [Triphenylphosphate] (APCI source condition: Wet, base ion: [M+H]+)
GC retention time [1]: 21.1 min
collision cross section [2]: 168.91 Å²

Clc1ccc(-c2ccccc2Cl)cc1 [PCB 7] (APCI source condition: Dry, base ion: M+.)
GC retention time [1]: 14.6 min
collision cross section [2]: 137.98 Å²

c1ccc2cc3ccccc3cc2c1 [Anthracene] (APCI source condition: Dry, base ion: M+.)
GC retention time [1]: 15.7 min
collision cross section [2]: 138 Å²

CCCCCCCCCCCCCCC(F)(F)C(F)(F)C(F)(F)C(F)(F)C(F)(F)C(F)(F)C(F)(F)C(F)(F)C(F)(F)C(F)(F)C(F)(F)C(F)(F)F [1-(Perfluorododecyl)tetradecane] (APCI source condition: Dry, base ion: [M-H]+)
GC retention time [1]: 16.7 min
collision cross section [2]: 250.16 Å²

Clc1ccc(-c2ccc(Cl)c(Cl)c2Cl)c(Cl)c1Cl [PCB 128] (APCI source condition: Dry, base ion: M+.)
GC retention time [1]: 21.3 min
collision cross section [2]: 158.12 Å²

Clc1ccc(-c2ccccc2)cc1 [PCB 3] (APCI source condition: Dry, base ion: M+.)
GC retention time [1]: 13.2 min
collision cross section [2]: 137.62 Å²

c1ccc2c(c1)ccc1c3ccccc3ccc21 [Chrysene] (APCI source condition: Dry, base ion: M+.)
GC retention time [1]: 21.9 min
collision cross section [2]: 141.28 Å²

ClC1=C(Cl)C2(Cl)C3C(Cl)C=CC3C1(Cl)C2(Cl)Cl (stereo not drawn) [Heptachlor] (APCI source condition: Dry, base ion: [M-H]+)
GC retention time [1]: 16.7 min
collision cross section [2]: 157.41 Å²

c1ccc2c(c1)ccc1ccccc12 [Phenanthrene] (APCI source condition: Dry, base ion: M+.)
GC retention time [1]: 15.6 min
collision cross section [2]: 137.89 Å²

Clc1ccc(Cl)c(-c2c(Cl)ccc(Cl)c2Cl)c1Cl [PCB136] (APCI source condition: Dry, base ion: M+.)
GC retention time [1]: 19.4 min
collision cross section [2]: 155.08 Å²

CCCCCCCCCCCCCCCCC(F)(F)C(F)(F)C(F)(F)C(F)(F)C(F)(F)C(F)(F)C(F)(F)C(F)(F)F [1-(Perfluoro-n-octyl)hexadecane] (APCI source condition: Dry, base ion: [M-H]+)
GC retention time [1]: 16.8 min
collision cross section [2]: 226.94 Å²

O=S1OC[C@@H]2[C@H](CO1)[C@]1(Cl)C(Cl)=C(Cl)[C@]2(Cl)C1(Cl)Cl (stereo partly drawn) [β-Endosulfan] (APCI source condition: Wet, base ion: [M+H]+)
GC retention time [1]: 20 min
collision cross section [2]: 162.35 Å²

Brc1ccc(Oc2ccc(Br)cc2Br)cc1 [PBDE 28] (APCI source condition: Dry, base ion: M+.)
GC retention time [1]: 20.1 min
collision cross section [2]: 154.31 Å²

CCCCC(CC)COP(=O)(OCC(CC)CCCC)OCC(CC)CCCC (stereo not drawn) [Tris(2-ethylhexyl) phosphate] (APCI source condition: Wet, base ion: [M+H]+)
GC retention time [1]: 21.5 min
collision cross section [2]: 221.61 Å²

Brc1ccc(Br)c(Oc2c(Br)c(Br)c(Br)c(Br)c2Br)c1 [PBDE 185] (APCI source condition: Dry, base ion: M+.)
GC retention time [1]: 28.6 min
collision cross section [2]: 182.95 Å²

Brc1cc(Br)c(Oc2cc(Br)c(Br)cc2Br)cc1Br [PBDE 153] (APCI source condition: Dry, base ion: M+.)
GC retention time [1]: 26 min
collision cross section [2]: 180.67 Å²
